Literature values in US20160081915A1, “TRANSDERMAL FORMULATIONS OF FLUTICASONE” (STRATEGIC SCIENCE & TECHNOLOGIES, LLC, priority 2013, published 2016).

Conditions: oral; extensive first-pass metabolism in the liver

C[C@@H]1C[C@H]2[C@@H]3C[C@H](F)C4=CC(=O)C=C[C@]4(C)[C@@]3(F)[C@@H](O)C[C@]2(C)[C@@]1(O)C(=O)SCF [fluticasone]
half-life when delivered orally: about 7.8 hours
